One test deals with T1, human 5HT1E (Homo sapiens, UniProt P28566).
T1 construct: expressed in transfected cells
Briefly: Radioligand binding, 5HT1E receptor ([3H]-serotonin). The following applies: for pKi: Table 7, read-out: h5HT1E Ki; for selectivity ratio h5HT1E: Table 8, Ki h5HT1E divided by Ki hGAL3. As for the experimental part:
Human 5HT1B, 5HT1D, 5HT1E, 5HT1F, and 5HT7 Receptors: The cell lysates of LM(tk-) clonal cell line stably transfected with the genes encoding each of these 5HT receptor-subtypes were prepared as described above. Cell membranes were suspended in 50mM Tris-HCl buffer (pH 7.4 at 37°C) containing 10 mM MgCl2, 0.2 mM EDTA, 10 µM pargyline, and 0.1% ascorbate. […] Nonspecific binding was determined in the presence of 10 µM serotonin. The bound radioligand was separated by filtration through GF/B filters using a cell harvester.
(§1) Binding data were analyzed using nonlinear regression and statistical techniques available in the GraphPAD Prism package (San Diego, CA). Enzymatic assay data were derived from a standard curve of reference compound data.

Another test deals with T2, human 5HT4 receptor (Homo sapiens, UniProt Q13639).
T2 construct: expressed in transfected cells
T2 sequence (Q13639 whole entry): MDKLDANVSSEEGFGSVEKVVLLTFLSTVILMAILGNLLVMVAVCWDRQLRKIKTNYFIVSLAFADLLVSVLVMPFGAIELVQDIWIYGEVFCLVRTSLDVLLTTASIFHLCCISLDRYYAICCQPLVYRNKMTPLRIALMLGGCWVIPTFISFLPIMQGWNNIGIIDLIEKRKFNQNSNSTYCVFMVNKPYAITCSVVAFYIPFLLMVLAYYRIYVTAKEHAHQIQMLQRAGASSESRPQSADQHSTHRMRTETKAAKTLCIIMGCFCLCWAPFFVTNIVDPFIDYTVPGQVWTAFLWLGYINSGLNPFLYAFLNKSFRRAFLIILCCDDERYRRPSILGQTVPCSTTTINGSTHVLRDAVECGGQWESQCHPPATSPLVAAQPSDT
In words: Radioligand binding, 5-HT4 receptor. The following applies: for pKi: Table 7, read-out: h5HT4 Ki; for selectivity ratio h5HT4: Table 8, Ki h5HT4 divided by Ki hGAL3. The method, then:
Other 5-HT Receptors: Other serotonin receptor binding assays were performed according to published methods: rat 5HT2C receptor (Julius et al., 1988); and 5-HT6 (Monsma, et al., 1993). The binding assays using the 5-HT4 receptor were performed according to the procedures described in U.S. Patent No. 5,766,879, the disclosure of which is hereby incorporated by reference in its entirety into this application.
as §1

Another test addresses T3, human α1A adrenoceptor (Homo sapiens, UniProt P35348).
T3 construct: expressed in transfected cells
T3 sequence (P35348 1-466): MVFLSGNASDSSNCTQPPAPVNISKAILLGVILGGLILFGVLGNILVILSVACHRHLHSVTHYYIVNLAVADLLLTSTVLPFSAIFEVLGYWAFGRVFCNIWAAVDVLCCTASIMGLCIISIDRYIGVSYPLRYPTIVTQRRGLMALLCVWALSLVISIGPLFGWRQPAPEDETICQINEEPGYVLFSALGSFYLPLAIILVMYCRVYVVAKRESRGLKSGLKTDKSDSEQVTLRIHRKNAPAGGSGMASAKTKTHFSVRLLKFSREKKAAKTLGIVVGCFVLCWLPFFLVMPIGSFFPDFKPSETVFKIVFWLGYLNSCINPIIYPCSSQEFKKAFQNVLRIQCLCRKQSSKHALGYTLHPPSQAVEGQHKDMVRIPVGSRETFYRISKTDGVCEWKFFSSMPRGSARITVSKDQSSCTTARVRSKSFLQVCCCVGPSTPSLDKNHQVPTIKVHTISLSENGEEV
In words: Radioligand binding, α1A adrenergic receptor. The conditions noted are these: for pKi: Table 9, read-out: hα1A Ki; for selectivity ratio hα1A: Table 10, Ki hα1A divided by Ki hGAL3.
From the text: (§2) Other receptors: Cell membranes expressing human dopamine D1, D2, D4 and rat D3 receptors were purchased through BioSignal, Inc. (Montreal, Canada). Binding assays using the histamine H1 receptor; dopamine receptors; and α1A, α1E, and α2 adrenergic receptors may be carried out according to the procedures described in U.S. Patent No. 5,780,485, the disclosure of which is hereby incorporated by reference in its entirety into this application. Binding assays using the dopamine D5 receptor may be carried out according to the procedures described in U.S. Patent No. 5,882,855, the disclosure of which is hereby incorporated by reference in its entirety into this application. Binding assays for the human α1D adrenergic receptor may be carried out according to the procedures described in U.S. Patent No. 6,156,518, the disclosure of which is hereby incorporated by reference in its entirety into this application.
as §1

For test [1], the target named is T4, human α1D adrenergic receptor (Homo sapiens, UniProt P25100).
T4 construct: expressed in transfected cells
T4 sequence (P25100 1-572): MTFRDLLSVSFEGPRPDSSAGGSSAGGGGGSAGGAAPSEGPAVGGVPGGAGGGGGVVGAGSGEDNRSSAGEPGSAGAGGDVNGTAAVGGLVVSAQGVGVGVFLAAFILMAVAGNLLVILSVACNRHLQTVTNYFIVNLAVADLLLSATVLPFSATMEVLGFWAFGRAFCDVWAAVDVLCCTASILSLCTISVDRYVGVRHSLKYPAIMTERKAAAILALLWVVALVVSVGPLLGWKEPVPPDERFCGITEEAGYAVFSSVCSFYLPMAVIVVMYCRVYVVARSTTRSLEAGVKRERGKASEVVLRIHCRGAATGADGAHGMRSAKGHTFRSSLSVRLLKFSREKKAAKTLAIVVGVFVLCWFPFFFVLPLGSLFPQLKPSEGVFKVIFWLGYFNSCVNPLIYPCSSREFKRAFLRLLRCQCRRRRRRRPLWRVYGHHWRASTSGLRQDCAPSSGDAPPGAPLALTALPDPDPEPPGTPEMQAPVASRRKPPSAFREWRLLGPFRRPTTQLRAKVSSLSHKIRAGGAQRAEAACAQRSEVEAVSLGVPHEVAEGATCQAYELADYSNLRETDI
Briefly: Radioligand binding, α1D adrenergic receptor. The conditions noted are these: for pKi: Table 9, read-out: hα1D Ki; for selectivity ratio hα1D: Table 10, Ki hα1D divided by Ki hGAL3.
From the text: as §2, §1

In another test the target is T5, human α2A adrenoceptor (Homo sapiens, UniProt P08913).
T5 construct: expressed in transfected cells
T5 sequence (P08913 1-465): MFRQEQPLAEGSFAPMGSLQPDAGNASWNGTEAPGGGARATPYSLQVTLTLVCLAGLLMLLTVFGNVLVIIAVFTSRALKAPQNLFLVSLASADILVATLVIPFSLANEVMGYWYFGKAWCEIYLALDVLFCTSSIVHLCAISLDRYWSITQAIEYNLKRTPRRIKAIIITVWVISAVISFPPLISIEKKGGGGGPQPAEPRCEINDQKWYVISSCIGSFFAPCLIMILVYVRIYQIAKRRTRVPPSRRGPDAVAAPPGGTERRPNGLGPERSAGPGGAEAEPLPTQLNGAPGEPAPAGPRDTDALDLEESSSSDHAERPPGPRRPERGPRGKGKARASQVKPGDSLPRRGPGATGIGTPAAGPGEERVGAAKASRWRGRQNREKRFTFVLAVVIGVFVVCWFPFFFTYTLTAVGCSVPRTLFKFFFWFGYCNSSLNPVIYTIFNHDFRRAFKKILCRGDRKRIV
Briefly: Radioligand binding, α2A adrenergic receptor. The conditions noted are these: for pKi: Table 9, read-out: hα2A Ki; for selectivity ratio hα2A: Table 10, Ki hα2A divided by Ki hGAL3.
From the text: as §2, §1

Results on three compounds are retold here after patent EP2140864A2 (H. Lundbeck A/S, priority 2001, dated 2002).

By pKi is commonly meant the negative decadic logarithm of the Ki, by convention in mol/L.

Molecules are shown by their SMILES. pKi: −log10 of the molar value.

T1 sequence (P28566 whole entry): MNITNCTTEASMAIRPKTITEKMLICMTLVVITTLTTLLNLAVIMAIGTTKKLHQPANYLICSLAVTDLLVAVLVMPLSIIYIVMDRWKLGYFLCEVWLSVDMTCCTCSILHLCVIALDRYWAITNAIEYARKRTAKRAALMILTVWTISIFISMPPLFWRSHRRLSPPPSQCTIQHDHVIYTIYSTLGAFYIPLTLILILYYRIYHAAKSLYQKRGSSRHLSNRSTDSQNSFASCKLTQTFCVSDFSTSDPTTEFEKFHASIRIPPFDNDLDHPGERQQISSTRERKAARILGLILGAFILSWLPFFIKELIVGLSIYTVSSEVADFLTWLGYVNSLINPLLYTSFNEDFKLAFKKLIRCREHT

Take `Cc1ccc(Nc2cc(N3CCCCC3)nc(N(C)CCc3c[nH]c4ccccc34)n2)cc1` [Example 11]: on human 5HT1E, the pKi is 5.04 and the “selectivity ratio h5HT1E” value is on record as over 100. For the same compound, on human 5HT4 receptor, the negative-log Ki (pKi) is 5.88 and the “selectivity ratio h5HT4” value worked out at 14. On human α1A adrenoceptor, the pKi was 6.03 and the “selectivity ratio hα1A” value was found to be 10. In addition, in test [1], the negative logarithm of the Ki (pKi) is 6.58 and the “selectivity ratio hα1D” value came out at 3. Besides, on human α2A adrenoceptor, the pKi was 5.74 and the “selectivity ratio hα2A” value came out at 20.

Consider `CN(CCc1c[nH]c2ccccc12)c1nc(Nc2ccc(F)c(F)c2)cc(N2CCCCC2)n1` [Example 15], for which, on human 5HT1E, the pKi was 4.96 and the “selectivity ratio h5HT1E” value is reported as over 100. Besides, on human 5HT4 receptor, the negative-log Ki (pKi) was 5.64 and the “selectivity ratio h5HT4” value is over 30. Also, at human α1A adrenoceptor, the negative-log Ki (pKi) is 5.47 and the “selectivity ratio hα1A” value was determined as 46. Besides, in test [1], the negative-log Ki (pKi) is 6.32 and the “selectivity ratio hα1D” value amounted to 7. For the same compound, on human α2A adrenoceptor, the pKi was 4.84 and the “selectivity ratio hα2A” value is given as over 100.

Take `Cc1ccc(Nc2cc(N3CCCCC3)nc(N3CCN(c4ncccc4C(F)(F)F)CC3)n2)cc1` [Example 34]: on human 5HT1E, the pKi is 4.55 and the “selectivity ratio h5HT1E” value is listed as over 100. At human 5HT4 receptor, the negative-log Ki (pKi) was 4.68 and the “selectivity ratio h5HT4” value is recorded as over 100. Besides, at human α1A adrenoceptor, the negative logarithm of the Ki (pKi) was 5.43 and the “selectivity ratio hα1A” value was over 100. Also, in test [1], the pKi was 5.91 and the “selectivity ratio hα1D” value is recorded as over 30. At human α2A adrenoceptor, the pKi was 5.43 and the “selectivity ratio hα2A” value was over 100.
